Measurements: patent US11285156B2, “Substituted piperazines as KRAS G12C inhibitors” (Amgen Inc., priority 2018, dated 2022)
Where two headings read alike, the source gives them in different places.

Tests used:
[1] = system: Phosphorylation of ERK1/2 in MIA PaCa-2 cells; experiment: Phospho-ERK1/2 MSD assay in MIA PaCa-2 cells; type: cell-based; conditions: read-out: p-ERK IC50 (2 h, MiaPaCa-2; μM), 2 h compound treatment, MIA PaCa-2 cells, EGF stimulated
Outline: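 Phospho-ERK1/2 measured by MSD electrochemiluminescence kit in RIPA lysates of MIA PaCa-2 cells. Cells were treated with compound titrations for 2 or 4 h at 37 °C, 5% CO2, followed by a 10 min pulse of 10 ng/mL EGF.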

[2] = system: Phosphorylation of ERK1/2 in A549 cells; experiment: Phospho-ERK1/2 MSD assay in A549 cells; type: cell-based; conditions: read-out: p-ERK IC50 (2 h, A549; μM), 2 h compound treatment, A549 cells, EGF stimulated
Outline: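 Phospho-ERK1/2 was quantified by MSD immunoassay in RIPA lysates of MIA PaCa-2 or A549 cells. Before lysis, cells received 10 ng/mL EGF for 10 min after 2 or 4 h exposure at 37° C. to a compound concentration series.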

[3] = target: GDP-bound KRAS protein (aa 1-169), containing both G12C and C118A amino acid substitutions (Homo sapiens (Human), UniProt P01116, C118A/G12C); experiment: Coupled nucleotide exchange assay (SOS-mediated nucleotide exchange, AlphaScreen); type: biochemical; conditions: 5 min compound pre-incubation; for IC50: read-out: Coupled exchange IC50 (5 min; μM)
Chain of GDP-bound KRAS protein (aa 1-169), containing both G12C and C118A amino acid substitutions (P01116 other isoform, or with tags, fused parts or gaps G12C/C118A): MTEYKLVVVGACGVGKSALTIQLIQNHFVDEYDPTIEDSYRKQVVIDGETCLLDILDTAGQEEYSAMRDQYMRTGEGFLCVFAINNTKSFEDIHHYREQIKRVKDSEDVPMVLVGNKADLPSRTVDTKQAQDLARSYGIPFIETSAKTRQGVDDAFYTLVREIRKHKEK

| Compound | IC50 [1] [µM] | IC50 [2] [µM] | IC50 [3] [µM] | IC50 ([1]; Homo sapiens, MIA PaCa-2, 2 h) [µM] | IC50 ([2]; Homo sapiens, A549, 2 h) [µM] | Coupled exchange IC50 (5 min; μM) [3] [µM] |
| --- | --- | --- | --- | --- | --- | --- |
| C=CC(=O)N1C[C@H](C)N(c2nc(=O)n(-c3c(CC)ccnc3C(C)C)c3nc(-c4ccccc4F)c(Cl)cc23)C[C@H]1C (single isomer, unassigned) [Example 55-58-1] | 0.107 | > 7.5 | 0.03 | – | – | – |
| C=CC(=O)N1C[C@H](C)N(c2nc(=O)n(-c3c(CC)ccnc3C(C)C)c3nc(-c4ccccc4F)c(Cl)cc23)C[C@H]1C (single isomer, unassigned) [Example 55-58-2] | 0.101 | > 7.5 | 0.092 | – | – | – |
| C=CC(=O)N1C[C@H](C)N(c2nc(=O)n(-c3c(CN4CCCC4)cccc3C(C)C)c3nc(-c4ccccc4F)c(Cl)cc23)C[C@H]1C (single isomer, unassigned) [Example 80-10-2] | 0.04 | > 7.5 | 0.053 | – | – | – |
| C=CC(=O)N1C[C@H](C)N(c2nc(=O)n(-c3c(CN(C)C)cccc3C(C)C)c3nc(-c4ccccc4F)c(Cl)cc23)C[C@H]1C (single isomer, unassigned) [Example 80-14-2] | – | – | 0.061 | 0.031 | > 7.5 | – |
| C=CC(=O)N1C[C@H](C)N(c2nc(=O)n(-c3c(CN(C)C)ccnc3C(C)C)c3nc(-c4ccccc4F)c(Cl)cc23)C[C@H]1C (single isomer, unassigned) [Example 80-16-1] | – | – | 0.061 | 0.041 | > 7.5 | – |
| C=CC(=O)N1C[C@H](C)N(c2nc(=O)n(-c3c(CN(C)C)ncnc3C(C)C)c3nc(-c4ccccc4F)c(Cl)cc23)C[C@H]1C (single isomer, unassigned) [Example 80-18-2] | – | – | 0.11 | 0.044 | > 7.5 | – |
| C=CC(=O)N1C[C@H](C)N(c2nc(=O)n(-c3c(C)cc(CN(C)C)cc3C(C)C)c3nc(-c4ccccc4F)c(F)cc23)C[C@H]1C (single isomer, unassigned) [Example 80-20-2] | 0.295 | > 7.5 | 0.368 | – | – | – |
| C=CC(=O)N1C[C@H](C)N(c2nc(=O)n(-c3c(C)cc(CN(C)C)cc3C(C)C)c3nc(-c4c(O)cccc4F)c(F)cc23)C[C@H]1C (single isomer, unassigned) [Example 80-21-2] | 0.072 | > 7.5 | 0.061 | – | – | – |
| C=CC(=O)N1C[C@H](C)N(c2nc(=O)n(-c3c(C(C)C)cnn3C(C)C)c3nc(-c4ccccc4F)c(Cl)cc23)C[C@H]1C (single isomer, unassigned) [Example 100-1-1] | 0.091 | > 7.5 | 0.061 | – | – | – |
| C=CC(=O)N1C[C@H](C)N(c2nc(=O)n(-c3c(C(C)C)cnn3C(C)C)c3nc(-c4ccccc4F)c(Cl)cc23)C[C@H]1C (single isomer, unassigned) [Example 100-1-2] | 0.098 | > 7.5 | 0.062 | – | – | – |
| C=CC(=O)N1C[C@H](C)N(c2nc(=O)n(-c3c(Cl)ncnc3C(C)C)c3nc(-c4ccccc4F)c(Cl)cc23)C[C@H]1C (single isomer, unassigned) [Example 102-5-1] | 0.058 | > 7.5 | 0.031 | – | – | – |
| C=CC(=O)N1C[C@H](C)N(c2nc(=O)n(-c3c(Cl)ncnc3C(C)C)c3nc(-c4ccccc4F)c(Cl)cc23)C[C@H]1C (single isomer, unassigned) [Example 102-5-2] | 0.873 | > 7.5 | 0.173 | – | – | – |
| C=CC(=O)N1C[C@H](C)N(c2nc(=O)n(-c3c(Cl)ncnc3C(C)C)c3nc(-c4ccccc4C)c(Cl)cc23)C[C@H]1C (single isomer, unassigned) [Example 102-6-1] | 0.056 | > 7.5 | 0.094 | – | – | – |
| C=CC(=O)N1C[C@H](C)N(c2nc(=O)n(-c3c(C)cc(P(C)(C)=O)cc3C(C)C)c3nc(-c4ccccc4F)c(Cl)cc23)C[C@H]1C (single isomer, unassigned) [Example 102-7-1] | – | – | 0.181 | 1.06 | > 7.5 | – |
| C=CC(=O)N1C[C@H](C)N(c2nc(=O)n(-c3c(N(C)C)ccnc3C(C)C)c3nc(-c4ccccc4C(C)C)c(Cl)cc23)C[C@H]1C (single isomer, unassigned) [Example 103-1-2] | 0.039 | > 7.5 | 0.053 | – | – | – |
| C=CC(=O)N1C[C@H](C)N(c2nc(=O)n(-c3c(N(CC)CC)ccnc3C(C)C)c3nc(-c4ccccc4C(C)C)c(Cl)cc23)C[C@H]1C (single isomer, unassigned) [Example 103-6-2] | 0.26 | 5.19 | 0.112 | – | – | – |
| C=CC(=O)N1C[C@H](C)N(c2nc(=O)n(-c3c(N(C)C)ccnc3C(C)C)c3nc(-c4ccccc4C)c(Cl)cc23)C[C@H]1C (single isomer, unassigned) [Example 103-7-2] | 0.052 | > 7.5 | 0.088 | – | – | – |

| Compound | IC50 [1] [µM] | IC50 [2] [µM] | IC50 [3] [µM] | IC50 ([1]; Homo sapiens, MIA PaCa-2, 2 h) [µM] | IC50 ([2]; Homo sapiens, A549, 2 h) [µM] | Coupled exchange IC50 (5 min; μM) [3] [µM] |
| --- | --- | --- | --- | --- | --- | --- |
| C=CC(=O)N1C[C@H](C)N(c2nc(=O)n(-c3c(C)ccnc3C(C)C)c3nc(-c4ccccc4F)c(Cl)nc23)C[C@H]1C (single isomer, unassigned) [Example 106-6-2] | – | – | 0.059 | 0.301 | > 7.5 | – |
| C=CC(=O)N1C[C@H](C)N(c2nc(=O)n(-c3c(C(C)C)ncnc3C3CC3)c3nc(-c4ccccc4F)c(Cl)cc23)C[C@H]1C (single isomer, unassigned) [Example 108-1-1] | 0.021 | > 7.5 | 0.006 | – | – | – |
| C=CC(=O)N1C[C@H](C)N(c2nc(=O)n(-c3c(C(C)C)ncnc3C3CC3)c3nc(-c4ccccc4F)c(Cl)cc23)C[C@H]1C (single isomer, unassigned) [Example 108-1-2] | 0.054 | > 7.5 | 0.008 | – | – | – |
| C=CC(=O)N1C[C@H](C)N(c2nc(=O)n(-c3c(C(C)C)ncnc3C3CC3)c3nc(-c4ccccc4C)c(Cl)cc23)C[C@H]1C (single isomer, unassigned) [Example 108-2-1] | 0.046 | > 7.5 | 0.035 | – | – | – |
| C=CC(=O)N1C[C@H](C)N(c2nc(=O)n(-c3c(C(C)C)ncnc3C3CC3)c3nc(-c4ccccc4C)c(Cl)cc23)C[C@H]1C (single isomer, unassigned) [Example 108-2-2] | 0.148 | > 7.5 | 0.181 | – | – | – |
| C=CC(=O)N1C[C@H](C)N(c2nc(=O)n(-c3c(CC)ncnc3C(C)C)c3nc(-c4ccccc4F)c(Cl)cc23)C[C@H]1C (single isomer, unassigned) [Example 109-1-1] | 0.045 | > 7.5 | 0.06 | – | – | – |
| C=CC(=O)N1C[C@H](C)N(c2nc(=O)n(-c3c(CC)ncnc3C(C)C)c3nc(-c4ccccc4F)c(Cl)cc23)C[C@H]1C (single isomer, unassigned) [Example 109-1-2] | 0.08 | > 7.5 | 0.209 | – | – | – |
| C=CC(=O)N1C[C@H](C)N(c2nc(=O)n(-c3c(CC)ncnc3C(C)C)c3nc(-c4ccccc4C)c(Cl)cc23)C[C@H]1C (single isomer, unassigned) [Example 109-2-1] | 0.065 | > 7.5 | 0.059 | – | – | – |
| C=CC(=O)N1C[C@H](C)N(c2nc(=O)n(-c3c(C)cc(CN(C)C)cc3C(C)C)c3nc(-c4ccccc4F)c(Cl)cc23)C[C@H]1C (single isomer, unassigned) [Example 121-3] | – | – | – | 0.027 | > 7.5 | 0.066 |
| C=CC(=O)N1C[C@H](C)N(c2nc(=O)n(-c3c(N(C)C)ccnc3C(C)C)c3nc(-c4c(F)cccc4NC(=O)CC)c(Cl)cc23)C[C@H]1C (single isomer, unassigned) [Example 122-2-2] | 0.63 | – | 0.088 | – | > 7.5 | – |
| C=CC(=O)N1C[C@H](C)N(c2nc(=O)n(-c3c(N(C)C)ccnc3C(C)C)c3nc(-c4c(F)cccc4NC(=O)C4CC4)c(Cl)cc23)C[C@H]1C (single isomer, unassigned) [Example 122-3-2] | – | – | 0.179 | 0.145 | > 7.5 | – |
| C=CC(=O)N1[C@H](C)CN(c2nc(=O)n(-c3c(C)cc(N)nc3C(C)C)c3nc(-c4c(O)cccc4F)c(F)cc23)C[C@@H]1C (single isomer, unassigned) [Example 123-2] | – | – | 0.4 | 0.26 | > 7.5 | – |
| C=CC(=O)N1[C@H](C)CN(c2nc(=O)n(-c3c(C)cc(N)nc3C(C)C)c3nc(-c4c(N)cccc4F)c(F)cc23)C[C@@H]1C (single isomer, unassigned) [Example 123-6] | 0.133 | – | 0.231 | – | > 7.5 | – |
| C=CC(=O)N1C[C@H](C)N(c2nc(=O)n(-c3c(C(C)C)ccnc3C(C)C)c3nc(-c4ccccc4C)c(Cl)cc23)C[C@H]1C (single isomer, unassigned) [Example 124-2] | – | – | 0.033 | 0.032 | > 7.5 | – |
| C=CC(=O)N1C[C@H](C)N(c2nc(=O)n(-c3c(C(C)C)ccnc3C(C)C)c3nc(-c4ccccc4C(F)(F)F)c(Cl)cc23)C[C@H]1C (single isomer, unassigned) [Example 124-3] | – | – | 0.028 | 0.032 | > 7.5 | – |
| C=CC(=O)N1C[C@H](C)N(c2nc(=O)n(-c3c(C(C)C)ccnc3C(C)C)c3nc(-c4c(O)cccc4F)c(Cl)cc23)C[C@H]1C (single isomer, unassigned) [Example 124-4] | – | – | 0.022 | 0.016 | > 7.5 | – |
